How the values were obtained:
Akt1 pS473 = biological target: T1, Akt1 pS473 (Homo sapiens, UniProt P31749); experiment: Akt1 phosphorylation in A2780 cells; type: cell-based; conditions: human ovarian carcinoma cells (A2780)
T1 construct: expression of Akt1 pS473, Akt2 pS474, Akt3 pS472, and Akt pan 5473,474,472 in A2780 cells; endogenous in cells; host or cells: A2780 human ovarian carcinoma cells
Source text: FIG. 10 is a bar graph showing the effect of mJJ64A on the expression of Akt1 pS473, Akt2 pS474, Akt3 pS472, and Akt pan 5473,474,472 in A2780 cells compared to control. The Y axis represents integrated density value.

iTregs = experiment: Proliferation of activated iTregs; type: cell-based; conditions: TGF-β induced
Source text: FIGS. 13A-13H show histograms representing proliferation of activated iTregs induced with TGF-β and treated with various concentrations of mJJ64A. FIG. 13I is a bar graph showing percent proliferation of iTregs treated with various concentrations of mJJ64A. The X-axis represents concentration of mJJ64A. The Y-axis represents percent proliferation. FIG. 13J is a bar graph showing the percent of live cells in iTregs treated with various concentrations of mJJ64A. The X axis represents treatment and the Y axis represents percentage of live cells.

experimental colitis = experiment: Experimental colitis model; type: in vivo, mouse; conditions: Rag-/- colitis mice
Source text: FIG. 20A is a schematic illustration of the experimental design of a colitis model. FIG. 20B is a line graph representing weight (g) over time (days post-injection) for control (●), iTreg (▪), mJJ64A+iTreg (▴), and mJJ64A (∘) treated colitis mice. FIG. 20C is a line graph representing normalized weight over time (days post-injection) for control (●), iTreg (▪), mJJ64A+iTreg (▴), and mJJ64A (∘) treated colitis mice. FIG. 20D is a line graph showing percent survival of untreated (●), iTreg (blue circle), mJJ64A+iTreg (▾), and mJJ64A (red circle) treated colitis mice. The X-axis represents time (days) and the Y-axis represents percent survival. FIG. 20E-20I are representative photos of untreated (FIG. 20E), iTreg treated (FIG. 20F), JJa treated iTreg (FIG. 20G), untreated (FIG. 20H), and mJJ64A treated (FIG. 20I) colitis mice. […] FIG. 21A is a photo showing representative colons from untreated (UT), iTreg, mJJ64A treated iTreg, mJJ64A, and wild-type (WT) mice. FIG. 21B is a bar graph representing length and weight of colons from normal, untreated (UT), iTreg, mJJ64A, and mJJ64A+iTreg mice. The X-axis represents the treatment group and the Y-axis represents colon weight/length (mg/mm). […]

Tregs = experiment: Percent of Tregs in Rag-/- mice; type: in vivo, mouse; conditions: compared to untreated
Source text: FIG. 22A is a bar graph showing the number of CD4^+ T cells per 10^6 live cells in the spleen of WT, UT, iTreg, mJJ64A, and mJJ64A treated iTreg treated Rag^−/− mice. The X-axis represents treatment group and the Y-axis represents number of CD4^+ cells per 10^6 live cells. FIG. 22B is a bar graph showing the percent of FoxP3^+ cells per CD4^+ T cells in the spleen of WT, UT, iTreg, mJJ64A, and mJJ64A treated iTreg treated Rag^−/− mice. The X-axis represents treatment group and the Y-axis represents number of FoxP3^+ cells per CD4^+ cells. FIG. 22C is a bar graph showing the percent of FoxP3^− cells per CD4^+ T cells in the spleen of WT, UT, iTreg, mJJ64A, and mJJ64A treated iTreg treated Rag^−/− mice. The X-axis represents treatment group and the Y-axis represents number of FoxP3^− cells per CD4^+ cells. FIG. 22D is a bar graph showing the number of CD4^+ T cells per 10^6 live cells in the lymph node of WT, UT, iTreg, mJJ64A, and mJJ64A treated iTreg treated Rag^−/− mice. The X-axis represents treatment group and the Y-axis represents number of CD4^+ cells per 10^6 live cells. FIG. 22E is a bar graph showing the percent of FoxP3^+ cells per CD4^+ T cells in the lymph node of WT, UT, iTreg, mJJ64A, and mJJ64A treated iTreg treated Rag^−/− mice. The X-axis represents treatment group and the Y-axis represents number of FoxP3^+ cells per CD4^+ cells. […]

T1 sequence (P31749 whole entry): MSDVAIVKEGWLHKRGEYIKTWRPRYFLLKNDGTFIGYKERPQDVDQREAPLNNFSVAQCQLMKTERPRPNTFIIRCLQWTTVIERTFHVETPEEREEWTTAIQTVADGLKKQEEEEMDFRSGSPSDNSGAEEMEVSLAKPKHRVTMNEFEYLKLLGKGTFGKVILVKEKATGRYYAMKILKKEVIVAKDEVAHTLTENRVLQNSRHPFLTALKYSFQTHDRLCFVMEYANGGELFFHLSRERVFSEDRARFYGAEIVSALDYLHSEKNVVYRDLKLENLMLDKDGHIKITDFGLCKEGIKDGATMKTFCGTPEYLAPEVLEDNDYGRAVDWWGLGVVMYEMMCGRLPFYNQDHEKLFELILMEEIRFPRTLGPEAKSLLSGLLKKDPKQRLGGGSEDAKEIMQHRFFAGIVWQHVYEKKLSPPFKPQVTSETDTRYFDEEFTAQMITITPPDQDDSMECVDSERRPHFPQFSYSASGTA

N#Cc1ccc2nccc(Nc3ccc(C(=O)Nc4ccc(Nc5ccncc5)cc4)cc3)c2c1 [Compound 2]
phosphorylation of Akt1 (Akt1 pS473): not | proliferation of iTregs (iTregs): increased | protection against experimental colitis (experimental colitis): protected | percent of Tregs in the spleen and mesenteric lymph nodes (Tregs): increased

Source: US11291719B2, “Methods and compositions for modulating Akt3” (Augusta University Research Institute, Inc., priority 2016, dated 2022)
